Measurements reported in patent publication US8207178B2 (priority 2007, dated 2012).
Read-outs that look alike come from different tables or passages of the source.

Columns and labels:
Experiment in all cases: microbe, parasite or virus in culture
Assay type in all cases: cell-based, human immunodeficiency virus type 1 (HIV-1)
wild type HIV-1 = test system: wild type HIV-1
HIV-1 Y188L mutant = conditions: Human immunodeficiency virus 1, HeLa, read-out: EC50 mutant Y188L
HIV-1 K103N-L100I mutant = test system: HIV-1 K103N-L100I mutant
HIV-1 K103N mutant = conditions: Human immunodeficiency virus 1, HeLa, read-out: EC50 mutant K103N
HIV-1 K103N-Y181C mutant = conditions: Human immunodeficiency virus 1, HeLa, read-out: EC50 mutant K103N-Y181C
[1] = Human immunodeficiency virus 1, Hela-JC53
[2] = Human immunodeficiency virus 1, HeLa, read-out: EC50 mutant K103N-L100I, mutant K103N-L100I

Structure (SMILES) | EC50 (wild type HIV-1; [1]) | EC50 (HIV-1 Y188L mutant) | EC50 (HIV-1 K103N-L100I mutant; [2]) | EC50 (HIV-1 K103N mutant) | EC50 (HIV-1 K103N-Y181C mutant) | EC50 (wild type HIV-1) | EC50 (HIV-1 K103N-L100I mutant; read-out: EC50 mutant K103N-L100I, mutant K103N-L100I)
Cc1cc(-c2cn[nH]c2)cc(C)c1Oc1nc(Nc2ccc(C#N)cc2)nc2ccn(C)c12 [Example 24, 4-(4-(2,6-Dimethyl-4-(1H-pyrazol-4-yl)phenoxy)-5-methyl-5H-pyrrolo[3,2-d]pyrimidin-2-ylamino)-benzonitrile] | < 0.001 µM | 0.001 to 0.01 µM | 0.001 to 0.01 µM | 0.001 to 0.01 µM | > 0.01 µM |  | 
Cc1cc(-c2ccc(C(N)=O)cc2)cc(C)c1Oc1nc(Nc2ccc(C#N)cc2)nc2nc[nH]c12 [Example 45, 4′-(2-(4-Cyanophenylamino)-7H-purin-6-yloxy)-3′,5′-dimethylbiphenyl-4-carboxamide] | < 0.001 µM | 0.001 to 0.01 µM | 0.001 to 0.01 µM | 0.001 to 0.01 µM | 0.001 to 0.01 µM |  | 
Cc1cc(-c2ccnc(F)c2)cc(C)c1Oc1nc(Nc2ccc(C#N)cc2)nc2ccn(C)c12 [Example 3, 4-(4-(4-(2-Fluoropyridin-4-yl)-2,6-dimethylphenoxy)-5-methyl-5H-pyrrolo[3,2-d]pyrimidin-2-ylamino) benzonitrile] | 0.001 to 0.01 µM | > 0.01 µM | 0.001 to 0.01 µM | 0.001 to 0.01 µM | > 0.01 µM |  | 
Cc1cc(-c2ccc(C(N)=O)cc2)cc(C)c1Oc1nc(Nc2ccc(C#N)cc2)nc2ncn(C)c12 [Example 111, 4′-(2-(4-Cyanophenylamino)-7-methyl-7H-purin-6-yloxy)-3′,5′-dimethylbiphenyl-4-carboxamide] | 0.001 to 0.01 µM | > 0.01 µM | 0.001 to 0.01 µM | 0.001 to 0.01 µM | > 0.01 µM |  | 
Cc1cc(-c2ccc(S(N)(=O)=O)cc2)cc(C)c1Oc1nc(Nc2ccc(C#N)cc2)nc2ncn(C)c12 [Example 53, 4′-(2-(4-Cyanophenylamino)-7-methyl-7H-purin-6-yloxy)-3′,5′-dimethylbiphenyl-4-sulfonamide] | 0.001 to 0.01 µM | > 0.01 µM | 0.001 to 0.01 µM | 0.001 to 0.01 µM | 0.001 to 0.01 µM |  | 
Cc1cc(-c2ccncc2C#N)cc(C)c1Oc1nc(Nc2ccc(C#N)cc2)nc2ccn(C)c12 [Example 5, 4-(4-(2-(4-Cyanophenylamino)-5-methyl-5H-pyrrolo[3,2-d]pyrimidin-4-yloxy)-3,5-dimethylphenyl)nicotinonitrile] |  | > 0.01 µM |  | < 0.001 µM | 0.001 to 0.01 µM | < 0.001 µM | < 0.001 µM
Cc1cc(-c2ccncc2)cc(C)c1Oc1nc(Nc2ccc(C#N)cc2)nc2nc[nH]c12 [Example 29, 4-(6-(2,6-Dimethyl-4-(pyridin-4-yl)phenoxy)-7H-purin-2-ylamino)benzonitrile] | < 0.001 µM | 0.001 to 0.01 µM | 0.001 to 0.01 µM | < 0.001 µM | 0.001 to 0.01 µM |  | 
Cc1cc(-c2ccc(C(N)=O)cc2F)cc(C)c1Oc1nc(Nc2ccc(C#N)cc2)nc2ccn(C)c12 [Example 50, 4′-(2-(4-Cyanophenylamino)-5-methyl-5H-pyrrolo[3,2-d]pyrimidin-4-yloxy)-2-fluoro-3′,5′-dimethylbiphenyl-4-carboxamide] | 0.001 to 0.01 µM | > 0.01 µM | 0.001 to 0.01 µM | 0.001 to 0.01 µM | 0.001 to 0.01 µM |  | 
Cc1cc(-c2ccc(C(N)=O)cn2)cc(C)c1Oc1nc(Nc2ccc(C#N)cc2)nc2ncn(C)c12 [Example 123, 6-(4-(2-(4-cyanophenylamino)-7-methyl-7H-purin-6-yloxy)-3,5-dimethylphenyl)nicotinamide] | 0.001 to 0.01 µM | 0.001 to 0.01 µM | > 0.01 µM | 0.001 to 0.01 µM | > 0.01 µM |  | 
Cc1cc(-c2ccncc2F)cc(C)c1Oc1nc(Nc2ccc(C#N)cc2)nc2ccn(C)c12 [Example 2, 4-(4-(4-(3-Fluoropyridin-4-yl)-2,6-dimethylphenoxy)-5-methyl-5H-pyrrolo[3,2-d]pyrimidin-2-ylamino) benzonitrile] | 0.001 to 0.01 µM | > 0.01 µM | 0.001 to 0.01 µM | 0.001 to 0.01 µM | 0.001 to 0.01 µM |  | 
